Laboratory results reported in paper PMC8869097, “Benzothiazole Derivatives as Multifunctional Antioxidant Agents for Skin Damage: Structure–Activity Relationship of a Scaffold Bearing a Five-Membered Ring System” (Antioxidants, 2022).
Like-named read-outs stand apart in the source and are kept apart here.

How the values were obtained:
In vitro DPPH test = conditions: compounds at 1 mg/mL, 30 min, 517 nm
Procedure: The assay performed is adapted from Wang et al.. Briefly, 0.750 mL of 1 mg/mL solutions of the tested compounds was treated with 1.5 mL of DPPH solution in MeOH. The absorbance of samples, stored for 30 min at room temperature in the dark, was read on the spectrophotometer at 517 nm. The values obtained were converted into a radical inhibition percentage (%) by Equation (1). DPPH radical scavenging capacity (%) = [1 − A1/A0] × 100%(1) where A0 and A1 were, respectively, the absorbance without and with the sample. Subsequently, the compound with the best profile was tested in order to determine the IC50 (µg/mL). A linear regression plot is performed to calculate the actual sample concentration required to eliminate 50% of the DPPH free radicals.
The antioxidant activity of a molecule is very important and, if present, it can be synergistic with the SPF described above in reducing the damage that is ROS-induced by UV rays. For this reason, the synthesized compounds were assayed in vitro to assess their antioxidant profiles by means of the DPPH and FRAP assays (Table 2). Regarding the ability to scavenge the stable radical 2,2-diphenyl-1-picrylhydrazyl (DPPH), it was decided to investigate first the compounds synthesized at the same concentration (1 mg/mL) and evaluate the percentage of inhibition of the radical DPPH.

[1] = Ferric Reducing Antioxidant Power assay (FRAP); conditions: 593 nm
Procedure: The FRAP assay is a widely used method based on a colorimetric reaction linked to a redox and on the use of antioxidants as reducing agents.
The test evaluates the capacity of a sample to reduce ferric to ferrous ions in the presence of TPTZ (2,4,6-tripyridyl-s-triazine). The reaction mixture consists of 0.1 M acetate buffer pH 3.6, 10 mmol/L TPTZ in 40 mmol/HCl, and 20 mmol/L ferric chloride in the ratio 10/1/1 (v:v:v) as described by Benzie et al.. A total of 1.9 mL of reagent was added to 0.1 mL of suitably diluted sample or solvent. The absorbance values were measured using the UV-VIS spectrophotometer at 593 nm and expressed as µmol TE/g compound.

Trichophyton tonsurans = assay: Antidermatophyte activity, plaque growth inhibition; assay type: cell-based, Trichophyton tonsurans CBS 483.76; conditions: read-out: % Inhibition Growth T. tonsurans
Procedure: (§1) The dermatophytes used in this study were Epidermophyton floccosum var. floccosum (Netherlands) CBS 358.93 strain, Trichophyton tonsurans (Netherlands) CBS 483.76 strain, Trichophyton mentagrophytes (Netherlands) CBS 160.66 strain, Microsporum canis (Iran) CBS 131,110 strain, and Microsporum gypseum (Iran) CBS 130,948 strain. All dermatophytes were maintained at 4 °C as agar slants on SDA. Candida albicans (ATCC 10231) was maintained at 4 °C on SDA plate.
(§2) The in vitro antifungal activity against the five selected dermatophytes was evaluated, as previously described, using the plaque growth inhibition method. All compounds were evaluated at the final concentration of 100 µg/mL. The percentages of growth inhibition according to Equation (5) were calculated as the average of three different experiments. I = [(C − T)/C] × 100%,(5) where I is the percentage value of growth inhibition, C is the measure of the diameter of the control circular mycelial inoculum (mm) and T is the extended diameter of the treated mycelial inoculum (mm).
(§3) All synthesized benzothiazole derivatives were evaluated to evaluate their in vitro antifungal activity against the five pathogenic dermatophytes that cause the most common dermatomycoses: Microsporum gypseum, Microsporum canis, Trichophyton mentagrophytes, Trichophyton tonsurans and Epidermophyton floccosum. All compounds were tested at a concentration of 100 µg/mL in DMSO, to evaluate the ability to inhibit the growth of dermatophyte cultures in Sabouraud Dextrose Agar (SDA). Briefly, room temperature incubation was performed and dermatophyte inhibition assessed by measuring the colony diameter at each disc for 7 days. The results are shown in Table 3 and were determined as the average of three different experiments.

Microsporum gypseum = assay: as above; assay type: cell-based, Microsporum gypseum CBS 130,948; conditions: Nannizzia gypsea, read-out: % Inhibition Growth M. gypseum
Procedure: as §1, §2, §3

[2] = test system: Trichophyton mentagrophytes; assay: as above; assay type: cell-based, Trichophyton mentagrophytes CBS 160.66; conditions: read-out: % Inhibition Growth T. mentagrophytes
Procedure: as §1, §2, §3

Epidermophyton floccosum = assay: as above; assay type: cell-based, Epidermophyton floccosum var. floccosum CBS 358.93; conditions: read-out: % Inhibition Growth E. floccosum
Procedure: as §1, §2, §3

Microsporum canis = assay: as above; assay type: cell-based, Microsporum canis CBS 131,110; conditions: read-out: % Inhibition Growth M. canis
Procedure: as §1, §2, §3

[3] = UV spectra of compounds in solution (filtering parameters); assay type: physicochemical
Procedure: The evaluation of the sun protection parameters has been carried out using a UV-Vis spectrophotometer. The absorbance of the solutions of the test compounds dissolved in the different solvents (DMSO, MeOH, DMSO–H2O 4:6, DMSO–H2O 6:4, HE) at a concentration of 0.0015 (±0.000005)% was recorded in the range 290–400 nm using a 1 cm quartz cell at 1 nm intervals. It was decided to evaluate the profile of the compounds in the Peg-7 Glyceryl Cocoate (HE) oil, which is the emollient of choice to solubilize the compounds in a formulation suitable for in vivo analysis. Wavelength absorbance is in relationship with transmittance (T (λ)) from Equation (2) A (λ) = […](2) where T (λ) is the fraction of incident irradiance that is transmitted through a sample.
The three parameters were determined, respectively, in DMSO and in methanol in order to perform a comparison (Table S1).
Since DMSO is a solvent with characteristics very close to those of an oil, the analysis was also carried out in solutions that mimic the possible conditions of a formulation. For this reason, the 4:6 and 6:4 proportions of DMSO–H2O were chosen to evaluate the choice of an oil-in-water or water-in-oil emulsion.

[4] = Filtering parameters (in vitro SPF, UVAPF, UVA/UVB, critical wavelength) of W/O formulations on PMMA plates; assay type: physicochemical
Procedure: The synthesized derivatives were incorporated at increasing concentrations (1%, 2% and 3%) in a topical W/O cosmetic standard formulation, to evaluate the filtering parameters, having the following ingredients composition.
INCI (International Nomenclature Cosmetic Ingredients): aqua, glycerin, Euxyl PE 9010, xanthan gum, ceteareth-12, ceteareth-20, sterearic acid, butylhydroxytoluene, myritol, PEG-7 glyceryl cocoate and 10% sodium solution.
Briefly, the protocol is to finger spread 32.5 mg of each formulation onto 25 cm2 PMMA plates. Each formulation was tested in triplicate by recording five measurements for each dish, after incubation in the dark for 15–30 min at room temperature. UV transmittance data were recorded in the range 290–400 nm using a UV-VIS spectrophotometer.
Blank plate, SPF, UVA-PF and Critical Wavelength were achieved through SPF Calculator Software (version 2.1), Shimadzu, Milan, Italy) as previously reported.
For the determination of the SPF in vitro of the samples in formulation it was decided to use an internal method, developed by us previously and based on the adaptation of the ISO 24443: 2012 [38]. The transmittance spectrum, processed with a specific software (SPF Calculator), made it possible to obtain the SPF, UVAPF, critical lambda and UVA/UVB ratio values of the formulations containing the selected active ingredients (Table 1).

Row | melting point [°C] | A (absorbance) ([3]; DMSO) | ε (molar extinction coefficient) ([3]; DMSO) | λmax ([3]; DMSO) [nm] | A (absorbance) ([3]; MeOH) | ε (molar extinction coefficient) ([3]; MeOH) | λmax ([3]; MeOH) [nm] | SMILES | DPPH (% Inhibition) (In vitro DPPH test) | FRAP [1] | inhibition at 100 µg/mL (Trichophyton tonsurans; 100 μg/mL, SDA) [%] | inhibition at 100 µg/mL (Microsporum gypseum; 100 μg/mL, SDA) [%] | inhibition at 100 µg/mL ([2]; 100 μg/mL, SDA) [%] | inhibition at 100 µg/mL (Epidermophyton floccosum; 100 μg/mL, SDA) [%] | inhibition at 100 µg/mL (Microsporum canis; 100 μg/mL, SDA) [%] | other results
1 | > 250 | 0.700 | 13944.22 | 344.37 | 0.760 | 13263.53 | 341.40 | NS(=O)(=O)c1ccc2nc(-c3ccc[nH]3)sc2c1 [Compound 8c, 2-(1H-Pyrrol-2-Yl)benzothiazole-6-Sulfonamide] | 45.24 ± 2.78% | 119.12 ± 1.49 μmolTE/g | 2.25 ± 0.03 | 23.1 ± 0.48 | 2.36 ± 0.17 | 24.7 ± 0.71 | 23.3 ± 0.86 | 
2 | > 250 | 1.36 | 23901.58 | 331.90 | 1.02 | 19318.18 | 327.57 | O=C(O)c1ccc2nc(-c3ccco3)sc2c1 [Compound 9b, 2-(Furan-2-Yl)benzothiazole-6-Carboxylic Acid] | 9.49 ± 0.04% | 66.07 ± 8.23 μmolTE/g | 29.8 ± 1.23 | 18.1 ± 0.97 | < 0 | 5.48 ± 0.12 | 14.5 ± 0.83 | 
3 | > 250 | 0.59 | 10332.75 | 329.00 | 0.740 | 13805.97 | 325.30 | NS(=O)(=O)c1ccc2nc(-c3ccco3)sc2c1 [Compound 9c, 2-(Furan-2-Yl)benzothiazole-6-Sulfonamide] | 64.92 ± 0.91% | 150.34 ± 11.01 μmolTE/g | < 0 | 17.82 ± 0.06 | 10.97 ± 0.08 | 36.4 ± 1.25 | 19.5 ± 1.2 | 
4 | > 250 | 1.160 | 17818.74 | 340.00 | 1.140 | 21268.66 | 334.57 | O=C(O)c1ccc2nc(-c3cccs3)sc2c1 [Compound 10b, 2-(Thiophen-2-Yl)benzothiazole-6-Carboxylic Acid] | 46.04 ± 0.07% | 133.91 ± 8.13 μmolTE/g | 65.5 ± 1.58 | 18.5 ± 1.23 | 14.2 ± 1.01 | 28.3 ± 1.04 | 27.6 ± 1.47 | 

Continued, compound first:

Row | SMILES | melting point [°C] | A (absorbance) ([3]; DMSO) | ε (molar extinction coefficient) ([3]; DMSO) | λmax ([3]; DMSO) [nm] | A (absorbance) ([3]; MeOH) | ε (molar extinction coefficient) ([3]; MeOH) | λmax ([3]; MeOH) [nm] | DPPH (% Inhibition) (In vitro DPPH test) | FRAP [1] | inhibition at 100 µg/mL (Trichophyton tonsurans; 100 μg/mL, SDA) [%] | inhibition at 100 µg/mL (Microsporum gypseum; 100 μg/mL, SDA) [%] | inhibition at 100 µg/mL ([2]; 100 μg/mL, SDA) [%] | inhibition at 100 µg/mL (Epidermophyton floccosum; 100 μg/mL, SDA) [%] | inhibition at 100 µg/mL (Microsporum canis; 100 μg/mL, SDA) [%] | other results
5 | O=C(O)/C=C/c1ccc(O)c(O)c1 [Caffeic acid, reference compound] |  |  |  |  |  |  |  | 80.15 ± 1.24% | 10125.48 ± 32.87 μmolTE/g |  |  |  |  |  | 
6 | O=C(O)c1ccc2nc(-c3ccc[nH]3)sc2c1 [Compound 8b, 2-(1H-Pyrrol-2-Yl)benzothiazole-6-Carboxylic Acid] | > 250 | 0.370 | 5308.47 | 348.87 | 0.190 | 3089.43 | 341.63 | 5.71 ± 0.37% | 373.15 ± 1.27 μmolTE/g | 5.45 ± 0.12 | < 0 | < 0 | < 0 | < 0 | 
7 | O=S(=O)(O)c1ccc2[nH]c(-c3ccccc3)nc2c1 [PBSA, 2-Phenyl-1H-benzo[d]imidazole-5-sulfonic acid, reference compound] |  | 1.130 | 23839.66 | 310.50 | 1.460 | 30801.69 |  | <LOQ * | <LOQ * |  |  |  |  |  | inhibition at 100 µg/mL (Trichophyton tonsurans): < 0%; inhibition at 100 µg/mL (Microsporum gypseum): 9.44 ± 0.35%; SPF ([4]; 1% in W/O formulation): 3.22; UVAPF ([4]; 1% in W/O formulation): 0.94; λc ([4]; 1% in W/O formulation): 319 nm; SPF ([4]; 2% in W/O formulation): 4.63; UVAPF ([4]; 2% in W/O formulation): 0.94; λc ([4]; 2% in W/O formulation): 321 nm; SPF ([4]; 3% in W/O formulation): 5.09; UVAPF ([4]; 3% in W/O formulation): 1.02; λc ([4]; 3% in W/O formulation): 324 nm; inhibition at 100 µg/mL [2]: < 0%; inhibition at 100 µg/mL (Epidermophyton floccosum): 7.28 ± 0.56%; inhibition at 100 µg/mL (Microsporum canis): < 0%
